{
  "source": "paper PMC6917776",
  "about": "“Discovery of a chemical probe for PRDM9” (Nature Communications, 2019)",
  "key": {"[1]": {"target": "T1, Biotinylated PRDM9 (amino acids 195–415) (Homo sapiens, UniProt Q9NQV7)", "T1 construct": "Biotinylated PRDM9 (amino acids 195–415)", "T1 sequence (Q9NQV7 195-415)": "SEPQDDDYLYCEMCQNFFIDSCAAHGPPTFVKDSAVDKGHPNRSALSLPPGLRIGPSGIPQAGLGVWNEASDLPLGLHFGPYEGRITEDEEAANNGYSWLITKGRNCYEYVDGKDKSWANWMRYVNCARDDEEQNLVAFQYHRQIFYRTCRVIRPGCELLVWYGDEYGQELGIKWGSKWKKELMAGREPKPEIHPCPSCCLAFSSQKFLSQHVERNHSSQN", "test": "Surface plasmon resonance (SPR) binding", "parameters": "key to SPR steady state response, raw data (Y): response units (RU)", "details": "for SPR steady state response, raw data (Y): 350 µM SAM, Exp1–4", "procedure": "Biotinylated PRDM9 (amino acids 195–415) was immobilized on the flow cell of a SA sensor chip in 1x HBS-EP buffer, yielding 5700 RU. Using the buffer with 0.5% DMSO, 350 µM SAM and single cycle kinetic with 60 s contact time and a dissociation time of 120 s at a flow rate of 75 µL/min. […] Only binding to PRDM9 and PRDM7 with ∆Tm of higher than 2 °C was observed. […] All (c–e) experiments were performed in triplicate (n = 3) and data points are presented as average ± standard deviation. Source data are provided as a Source Data file.\nBinding studies by SPR were performed using a Biacore T200 (GE Health Sciences Inc.) at 20 °C. Biotinylated PRDM9 was captured onto a flow cell of a streptavidin-conjugated SA chip at approximately 5000 response units (RU) according to manufacturer’s protocol while another flow cell was left empty for reference subtraction. […]\nin the presence of SAM are the same as presented in figure 2 (a and b) within the main text. The experiments were performed in quadruplicate in the presence of 350 µM SAM (5x Km) or 750 µM SAH (5x IC50). Biotinylated PRDM9 (195-415aa) was immobilized on the flow cell of an SA sensor chip in 1x HBS-EP buffer, yielding 5700 RU. Using the buffer with 0.5% DMSO, 350 µM SAM or 750 µM SAH and single cycle kinetics with 60 s contact time and a dissociation time of 120 s at a flow rate of 75 µL/min. […]\nand at 20 µM in the presence of SAH as the highest concentration. Dilution factor of 0.33 was used to yield 5 concentrations."}, "PRDM9": {"target": "PRDM9 (Homo sapiens, UniProt Q9NQV7)", "sequence (Q9NQV7 whole entry)": "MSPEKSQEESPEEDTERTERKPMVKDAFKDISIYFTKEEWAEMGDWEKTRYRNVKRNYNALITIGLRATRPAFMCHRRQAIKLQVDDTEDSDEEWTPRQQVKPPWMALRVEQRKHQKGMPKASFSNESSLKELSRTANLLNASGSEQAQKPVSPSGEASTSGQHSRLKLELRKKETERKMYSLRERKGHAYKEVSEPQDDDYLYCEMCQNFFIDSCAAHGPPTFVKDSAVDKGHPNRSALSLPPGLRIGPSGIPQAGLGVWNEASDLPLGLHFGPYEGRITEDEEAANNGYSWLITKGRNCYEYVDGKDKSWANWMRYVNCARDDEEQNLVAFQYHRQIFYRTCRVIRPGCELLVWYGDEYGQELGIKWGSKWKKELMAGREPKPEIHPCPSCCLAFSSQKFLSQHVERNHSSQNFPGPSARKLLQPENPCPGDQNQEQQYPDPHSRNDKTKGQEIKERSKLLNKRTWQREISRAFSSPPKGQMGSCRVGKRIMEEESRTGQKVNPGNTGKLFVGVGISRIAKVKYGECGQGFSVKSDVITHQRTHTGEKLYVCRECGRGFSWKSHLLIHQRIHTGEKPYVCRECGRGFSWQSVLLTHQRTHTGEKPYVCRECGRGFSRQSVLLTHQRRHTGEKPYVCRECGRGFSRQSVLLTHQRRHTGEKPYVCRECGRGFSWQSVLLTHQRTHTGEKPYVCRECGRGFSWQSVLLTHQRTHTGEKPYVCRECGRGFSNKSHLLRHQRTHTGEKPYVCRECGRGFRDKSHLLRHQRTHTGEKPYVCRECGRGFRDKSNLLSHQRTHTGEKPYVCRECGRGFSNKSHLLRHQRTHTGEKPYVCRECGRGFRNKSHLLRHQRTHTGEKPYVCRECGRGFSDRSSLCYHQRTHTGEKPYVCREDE", "test": "DSF thermal stabilisation, PRDM selectivity and titration", "format": "binding", "procedure": "DSF measurements were performed as previously described[21] using a Light Cycler 480 II instrument from Roche Applied Science. […] Sypro Orange was purchased from Invitrogen as a 5000 × stock solution (concentration not specified by vendor) and was diluted 1:1000 to yield a 5 × working concentration. The temperature scan curves were fitted to a Boltzmann sigmoid function, and the Tm values were obtained from the midpoint of the transition."}, "[2]": {"details": "MRK-740 0.244141 uM, in the absence of SAM"}, "[3]": {"details": "MRK-740 0.244141 uM, in the presence of 2 mM of SAM"}, "[4]": {"details": "MRK-740 0.488281 uM, in the absence of SAM"}, "[5]": {"details": "MRK-740 0.488281 uM, in the presence of 2 mM of SAM"}, "[6]": {"details": "MRK-740 0.976563 uM, in the absence of SAM"}, "[7]": {"details": "MRK-740 0.976563 uM, in the presence of 2 mM of SAM"}, "[8]": {"details": "MRK-740 1.95312 uM, in the absence of SAM"}, "[9]": {"details": "MRK-740 1.95312 uM, in the presence of 2 mM of SAM"}, "[10]": {"details": "MRK-740 3.90625 uM, in the absence of SAM"}, "[11]": {"details": "MRK-740 3.90625 uM, in the presence of 2 mM of SAM"}, "[12]": {"details": "MRK-740 7.8125 uM, in the absence of SAM"}, "[13]": {"details": "MRK-740 7.8125 uM, in the presence of 2 mM of SAM"}, "[14]": {"details": "MRK-740 15.625 uM, in the absence of SAM"}, "[15]": {"details": "MRK-740 15.625 uM, in the presence of 2 mM of SAM"}, "[16]": {"details": "MRK-740 31.25 uM, in the absence of SAM"}, "[17]": {"details": "MRK-740 31.25 uM, in the presence of 2 mM of SAM"}, "[18]": {"details": "MRK-740 62.5 uM, in the absence of SAM"}, "[19]": {"details": "MRK-740 62.5 uM, in the presence of 2 mM of SAM"}, "[20]": {"details": "MRK-740 125 uM, in the absence of SAM"}, "[21]": {"details": "MRK-740 125 uM, in the presence of 2 mM of SAM"}, "[22]": {"details": "MRK-740 250 uM, in the absence of SAM"}, "[23]": {"details": "MRK-740 250 uM, in the presence of 2 mM of SAM"}, "[24]": {"details": "MRK-740 500 uM, in the absence of SAM"}, "[25]": {"details": "MRK-740 500 uM, in the presence of 2 mM of SAM"}},
  "note": "Values joined by “and” are separate entries in the source; they are usually repeats but may differ in a detail not shown here. Equal entries are not always repeated.",
  "data": [
    {"compound": "COc1cc(OC)cc(-c2noc(N3CCN(C)C4(CCN(c5ccnc(C)c5)CC4)C3)n2)c1", "note": "[MRK-740]", "values": [
      {"measurement": "Binding to PRDM9 in the presence of SAH, compared with SAM (in words)", "setting": "[1]; 750 µM SAH versus 350 µM SAM", "value": "dramatically weaker"},
      {"measurement": "SPR steady state response, raw data (Y)", "setting": "[1]; X = 1.11E-07 (concentration, unit not given)", "value": "22.0666 and 21.2987 and 20.382 and 19.6958"},
      {"measurement": "SPR steady state response, raw data (Y)", "setting": "[1]; X = 1.23E-08 (concentration, unit not given)", "value": "5.847 and 5.521 and 5.156 and 5.206"},
      {"measurement": "SPR steady state response, raw data (Y)", "setting": "[1]; X = 3.70E-08 (concentration, unit not given)", "value": "12.6421 and 12.2536 and 11.7778 and 11.3155"},
      {"measurement": "kon", "setting": "[1]; in the presence of 350 µM SAM", "value": "1.2e+06 ± 1e+11", "unit": "M⁻¹ s⁻¹"},
      {"measurement": "Kd", "setting": "[1]; in the presence of 350 µM SAM, n = 4, read-out: Kd, SPR kinetic fit", "value": "87 ± 5", "unit": "nM"},
      {"measurement": "∆Tm, Average (n=3)", "setting": "PRDM9; [2]", "value": "-0.02041 ⁰C"},
      {"measurement": "∆Tm, replicates", "setting": "PRDM9; [2]", "value": "0.1071 ⁰C and -0.1796 ⁰C and 0.01126 ⁰C"},
      {"measurement": "∆Tm, Average (n=3)", "setting": "PRDM9; [3]", "value": "0.008307 ⁰C"},
      {"measurement": "∆Tm, replicates", "setting": "PRDM9; [3]", "value": "0.03434 ⁰C and -0.02437 ⁰C and 0.01495 ⁰C"},
      {"measurement": "∆Tm, Average (n=3)", "setting": "PRDM9; [4]", "value": "0.01061 ⁰C"},
      {"measurement": "∆Tm, replicates", "setting": "PRDM9; [4]", "value": "0.0928 ⁰C and -0.07107 ⁰C and 0.01011 ⁰C"},
      {"measurement": "∆Tm, Average (n=3)", "setting": "PRDM9; [5]", "value": "0.1496 ⁰C"},
      {"measurement": "∆Tm, replicates", "setting": "PRDM9; [5]", "value": "0.1732 ⁰C and 0.04052 ⁰C and 0.2352 ⁰C"},
      {"measurement": "∆Tm, Average (n=3)", "setting": "PRDM9; [6]", "value": "0.04508 ⁰C"},
      {"measurement": "∆Tm, replicates", "setting": "PRDM9; [6]", "value": "0.1528 ⁰C and -0.2157 ⁰C and 0.1982 ⁰C"},
      {"measurement": "∆Tm, Average (n=3)", "setting": "PRDM9; [7]", "value": "0.2255 ⁰C"},
      {"measurement": "∆Tm, replicates", "setting": "PRDM9; [7]", "value": "0.2233 ⁰C and 0.03455 ⁰C and 0.4187 ⁰C"},
      {"measurement": "∆Tm, Average (n=3)", "setting": "PRDM9; [8]", "value": "-0.08242 ⁰C"},
      {"measurement": "∆Tm, replicates", "setting": "PRDM9; [8]", "value": "-0.00371 ⁰C and -0.4167 ⁰C and 0.1731 ⁰C"},
      {"measurement": "∆Tm, Average (n=3)", "setting": "PRDM9; [9]", "value": "0.4191 ⁰C"},
      {"measurement": "∆Tm, replicates", "setting": "PRDM9; [9]", "value": "0.4623 ⁰C and 0.3242 ⁰C and 0.4707 ⁰C"},
      {"measurement": "∆Tm, Average (n=3)", "setting": "PRDM9; [10]", "value": "-0.01426 ⁰C"},
      {"measurement": "∆Tm, replicates", "setting": "PRDM9; [10]", "value": "0.02232 ⁰C and -0.1544 ⁰C and 0.08926 ⁰C"},
      {"measurement": "∆Tm, Average (n=3)", "setting": "PRDM9; [11]", "value": "0.7764 ⁰C"},
      {"measurement": "∆Tm, replicates", "setting": "PRDM9; [11]", "value": "0.7056 ⁰C and 0.7972 ⁰C and 0.8264 ⁰C"},
      {"measurement": "∆Tm, Average (n=3)", "setting": "PRDM9; [12]", "value": "0.1037 ⁰C"},
      {"measurement": "∆Tm, replicates", "setting": "PRDM9; [12]", "value": "0.226 ⁰C and -0.09012 ⁰C and 0.1752 ⁰C"},
      {"measurement": "∆Tm, Average (n=3)", "setting": "PRDM9; [13]", "value": "1.337 ⁰C"},
      {"measurement": "∆Tm, replicates", "setting": "PRDM9; [13]", "value": "1.344 ⁰C and 1.221 ⁰C and 1.444 ⁰C"},
      {"measurement": "∆Tm, Average (n=3)", "setting": "PRDM9; [14]", "value": "-0.1063 ⁰C"},
      {"measurement": "∆Tm, replicates", "setting": "PRDM9; [14]", "value": "-0.01797 ⁰C and -0.3914 ⁰C and 0.09041 ⁰C"},
      {"measurement": "∆Tm, Average (n=3)", "setting": "PRDM9; [15]", "value": "1.956 ⁰C"},
      {"measurement": "∆Tm, replicates", "setting": "PRDM9; [15]", "value": "2.017 ⁰C and 1.819 ⁰C and 2.032 ⁰C"},
      {"measurement": "∆Tm, Average (n=3)", "setting": "PRDM9; [16]", "value": "0.1387 ⁰C"},
      {"measurement": "∆Tm, replicates", "setting": "PRDM9; [16]", "value": "0.3126 ⁰C and 0.00612 ⁰C and 0.09739 ⁰C"},
      {"measurement": "∆Tm, Average (n=3)", "setting": "PRDM9; [17]", "value": "2.652 ⁰C"},
      {"measurement": "∆Tm, replicates", "setting": "PRDM9; [17]", "value": "2.731 ⁰C and 2.527 ⁰C and 2.698 ⁰C"},
      {"measurement": "∆Tm, Average (n=3)", "setting": "PRDM9; [18]", "value": "0.1127 ⁰C"},
      {"measurement": "∆Tm, replicates", "setting": "PRDM9; [18]", "value": "0.2122 ⁰C and -0.02556 ⁰C and 0.1514 ⁰C"},
      {"measurement": "∆Tm, Average (n=3)", "setting": "PRDM9; [19]", "value": "3.593 ⁰C"},
      {"measurement": "∆Tm, replicates", "setting": "PRDM9; [19]", "value": "3.459 ⁰C and 3.608 ⁰C and 3.713 ⁰C"},
      {"measurement": "∆Tm, Average (n=3)", "setting": "PRDM9; [20]", "value": "0.3345 ⁰C"},
      {"measurement": "∆Tm, replicates", "setting": "PRDM9; [20]", "value": "0.254 ⁰C and 0.2924 ⁰C and 0.4572 ⁰C"},
      {"measurement": "∆Tm, Average (n=3)", "setting": "PRDM9; [21]", "value": "4.481 ⁰C"},
      {"measurement": "∆Tm, replicates", "setting": "PRDM9; [21]", "value": "4.418 ⁰C and 4.4008 ⁰C and 4.624 ⁰C"},
      {"measurement": "∆Tm, Average (n=3)", "setting": "PRDM9; [22]", "value": "0.7417 ⁰C"},
      {"measurement": "∆Tm, replicates", "setting": "PRDM9; [22]", "value": "0.7489 ⁰C and 0.7435 ⁰C and 0.7328 ⁰C"},
      {"measurement": "∆Tm, Average (n=3)", "setting": "PRDM9; [23]", "value": "5.104 ⁰C"},
      {"measurement": "∆Tm, replicates", "setting": "PRDM9; [23]", "value": "5.051 ⁰C and 5.067 ⁰C and 5.196 ⁰C"},
      {"measurement": "∆Tm, Average (n=3)", "setting": "PRDM9; [24]", "value": "1.354 ⁰C"},
      {"measurement": "∆Tm, replicates", "setting": "PRDM9; [24]", "value": "1.288 ⁰C and 1.351 ⁰C and 1.422 ⁰C"},
      {"measurement": "∆Tm, Average (n=3)", "setting": "PRDM9; [25]", "value": "5.9348 ⁰C"},
      {"measurement": "∆Tm, replicates", "setting": "PRDM9; [25]", "value": "5.8495 ⁰C and 5.999 ⁰C and 5.956 ⁰C"}
    ]}
  ]
}
